For 20 molecules, TGI and GI50 results are on record in PubChem BioAssay (NCI).

Several values for one entry are separate records, joined by “and”; a condition that tells them apart may be missing. Identical values can stand only once.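 How tested: cells in 96-well plates exposed to compound for 48 hours at five concentrations. GI50 marks 50% less growth. TGI: total growth inhibition.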

The test system of the first assay is NCI-H522 lung. The assay is described as follows: NCI-60 cell line screen, 48 h.
`Cc1cc2c(C(C)C)c(O)c(O)c(C=Nc3cc(C(F)(F)F)ccc3Cl)c2c(O)c1-c1c(C)cc2c(C(C)C)c(O)c(O)c(C=Nc3cc(C(F)(F)F)ccc3Cl)c2c1O` gave a TGI of 45.4 µM.
In the case of `COc1cc(C2c3cc4c(cc3[C@@H](Nc3ccc(N(C)C)cc3)[C@H]3COC(=O)C23)OCO4)cc(OC)c1O` (stereo not given in full), the GI50 was 1.18 µM; the TGI is 2.29 µM and 2.56 µM.
As to `O=c1nc(-c2ccccc2)c2c3c(cccn13)CCC2`, the TGI was > 100 µM.
In the case of `COc1ccc([C@H]2CC(=O)N3CCCC3N2)cc1` (stereo not given in full), the TGI was > 100 µM.
Same read-out and setting: in the case of `C=C(C)C1CC2C(C)=C(OC(C)=O)C1n1c(=O)c3cc4ccccc4cc3c(=O)n12` (stereo not given) it was > 100 µM.
For the molecule `COc1cc2cc(Oc3ccc(NC(=O)c4cccc(C(F)(F)F)c4)cc3)c(C)nc2cc1OC`, the GI50 is 2.81 µM and the TGI was > 100 µM.
`COc1cc(Nc2ccnc(N3CCN(c4ccnc5cc(Cl)ccc45)CC3)n2)cc(OC)c1`: the GI50 was 0.874 µM and the TGI amounted to 4.48 µM.
For `O=C(CCc1nc(=S)[nH][nH]1)NC12CC3CC(CC(C3)C1)C2`, the TGI was > 100 µM.
`CSc1ccc(/C=C2\CNC/C(=C\c3ccc(SC)cc3)C2=O)cc1`: the GI50 was 22.3 µg/mL; the TGI is > 161 µM and 63.5 µg/mL.
In the case of `COC(=O)C1=C(OC(=O)c2ccc(Cl)cc2)C(C(=O)OC)[C@@]2(O)[C@@H](C(=O)OC)C(c3ccccc3C(F)(F)F)C[C@@H]1[C@@H]2C(=O)OC` (stereo not given in full), the GI50 was 16.4 µM and the TGI was found to be 43.6 µM.
`CC[C@H](C)[C@H](NC(=O)c1cnccn1)C(=O)N(C)[C@H](C[C@@H](OC(C)=O)c1nc(C(=O)N[C@@H](Cc2ccccc2)C[C@H](C)C(=O)OC)cs1)C(C)C`: the GI50 was 0.0552 µM and the TGI stood at 2.49 µM.
`N#CC(C#N)SCc1ccccc1` came in with a TGI of 57.7 µM.

In the next assay the test system is PC-3 prostate. The assay is described as follows: NCI-60 cell line screen, 48 h.
Regarding `CC[N+]1(C)CCC(O)(c2ccc(C)cc2)C(C(=O)c2ccc(C)cc2)C1` (stereo not given), the TGI was > 100 µM.
On to `CC(=O)c1cccc(N(/C=C/C(=O)C(F)(F)F)CC(=O)c2ccc(Cl)cc2)c1`, for which the GI50 was > 100 µM and the TGI is > 100 µM.
Take `C#C[C@]1(O)CC[C@H]2[C@@H]3CC=C4c5nc(Nc6ccccn6)sc5CC[C@]4(C)[C@H]3CC[C@@]21C`: the GI50 is 0.489 µM and the TGI amounted to 3.99 µM.
Turning to `CSc1ccc(C2=Nn3c(nnc3-c3ccc(F)c(Cl)c3)SC2)cc1`, the GI50 is 4.67 µM and the TGI was > 100 µM.
Consider `O=c1oc2ccccc2c(O)c1C=NC(=S)c1ccncc1`, for which the TGI is > 100 µM.
`CC(C)(C)OC(=O)NCC(C#N)CNC(=O)OC(C)(C)C`: the TGI is > 100 µM.
For `COc1ccc(-c2cc(-c3ccc(Cl)cc3)c(C#N)c(=O)n2CCCCC(=O)Nc2ccccc2N)cc1`, the GI50 was 6.18 µM and the TGI worked out at 95.9 µM.
In the case of `Cc1cc2c(C(C)C)c(O)c(O)c(C=Nc3cc(C(F)(F)F)ccc3Cl)c2c(O)c1-c1c(C)cc2c(C(C)C)c(O)c(O)c(C=Nc3cc(C(F)(F)F)ccc3Cl)c2c1O`, the TGI was > 100 µM.
For the molecule `COc1cc2cc(Oc3ccc(NC(=O)c4cccc(C(F)(F)F)c4)cc3)c(C)nc2cc1OC`, the GI50 is 2.85 µM and the TGI is > 100 µM.
Turning to `COc1cc(Nc2ccnc(N3CCN(c4ccnc5cc(Cl)ccc45)CC3)n2)cc(OC)c1`, the GI50 is 1.4 µM and the TGI was > 100 µM.
With `COC(=O)C1=C(OC(=O)c2ccc(Cl)cc2)C(C(=O)OC)[C@@]2(O)[C@@H](C(=O)OC)C(c3ccccc3C(F)(F)F)C[C@@H]1[C@@H]2C(=O)OC` (stereo not given in full), the GI50 is 4.5 µM and the TGI is > 100 µM.
As for `CC[C@H](C)[C@H](NC(=O)c1cnccn1)C(=O)N(C)[C@H](C[C@@H](OC(C)=O)c1nc(C(=O)N[C@@H](Cc2ccccc2)C[C@H](C)C(=O)OC)cs1)C(C)C`, the GI50 was 1.36 µM and the TGI was > 33.3 µM.
Turning to `N#CC(C#N)SCc1ccccc1`, the TGI was > 100 µM.

The subject of a further assay is SK-MEL-28 melanoma. Description: NCI-60 cell line screen, 48 h.
For the molecule `CC(=O)c1cccc(N(/C=C/C(=O)C(F)(F)F)CC(=O)c2ccc(Cl)cc2)c1`, the GI50 was > 100 µM and the TGI was > 100 µM.
In the case of `C#C[C@]1(O)CC[C@H]2[C@@H]3CC=C4c5nc(Nc6ccccn6)sc5CC[C@]4(C)[C@H]3CC[C@@]21C`, the GI50 is 0.279 µM and the TGI came to 1.01 µM.
In the same order, the values of `CSc1ccc(C2=Nn3c(nnc3-c3ccc(F)c(Cl)c3)SC2)cc1` are 34.2 µM and > 100 µM.
As for `O=c1oc2ccccc2c(O)c1C=NC(=S)c1ccncc1`, the TGI was > 100 µM.
As to `CC(C)(C)OC(=O)NCC(C#N)CNC(=O)OC(C)(C)C`, the TGI was > 100 µM.
As to `COc1ccc(-c2cc(-c3ccc(Cl)cc3)c(C#N)c(=O)n2CCCCC(=O)Nc2ccccc2N)cc1`, the GI50 is 9.13 µM and the TGI was > 100 µM.
Regarding `CC1(C)C(=O)C(O)=CC2C1=CCC1C2(C)C(=O)CC2(C)C(C(C)(O)C(=O)CC(O)C(C)(C)O)C(O)CC12C` (stereo not given), the TGI was determined as 7.43 µM.
`Cc1cc2c(C(C)C)c(O)c(O)c(C=Nc3cc(C(F)(F)F)ccc3Cl)c2c(O)c1-c1c(C)cc2c(C(C)C)c(O)c(O)c(C=Nc3cc(C(F)(F)F)ccc3Cl)c2c1O`: the TGI is > 100 µM.
As for `COc1cc(C2c3cc4c(cc3[C@@H](Nc3ccc(N(C)C)cc3)[C@H]3COC(=O)C23)OCO4)cc(OC)c1O` (stereo not given in full), the GI50 is 12.1 µM; the TGI is 14.9 µM and 28.2 µM.
Take `O=c1nc(-c2ccccc2)c2c3c(cccn13)CCC2`: the TGI was > 100 µM.
Regarding `COc1ccc([C@H]2CC(=O)N3CCCC3N2)cc1` (stereo not given in full), the TGI was > 100 µM.
The same measure, in the same setting: in the case of `C=C(C)C1CC2C(C)=C(OC(C)=O)C1n1c(=O)c3cc4ccccc4cc3c(=O)n12` (stereo not given) it was > 100 µM.
As to `COc1cc2cc(Oc3ccc(NC(=O)c4cccc(C(F)(F)F)c4)cc3)c(C)nc2cc1OC`, the GI50 is 6.61 µM and the TGI is > 100 µM.
Regarding `COc1cc(Nc2ccnc(N3CCN(c4ccnc5cc(Cl)ccc45)CC3)n2)cc(OC)c1`, the GI50 was 1.39 µM and the TGI was > 100 µM.
Consider `O=C(CCc1nc(=S)[nH][nH]1)NC12CC3CC(CC(C3)C1)C2`, for which the TGI was > 100 µM.
Regarding `CSc1ccc(/C=C2\CNC/C(=C\c3ccc(SC)cc3)C2=O)cc1`, the GI50 is 150 µg/mL; the TGI was > 371 µM and 150 µg/mL.
On to `COC(=O)C1=C(OC(=O)c2ccc(Cl)cc2)C(C(=O)OC)[C@@]2(O)[C@@H](C(=O)OC)C(c3ccccc3C(F)(F)F)C[C@@H]1[C@@H]2C(=O)OC` (stereo not given in full), for which the GI50 is 6.69 µM and the TGI was > 100 µM.
